# Experimental data from US10213412B2, “Modulators of CA2+ release-activated CA2+ (CRAC) channels and pharmaceutical uses thereof” (Vivreon Biosciences, LLC, priority 2015, dated 2019).
# Read-outs that look alike come from different tables or passages of the source.
# Assays:
# [1] = Concentrations of Compound 1 in mouse plasma and brain after s.c. administration; type: in vivo; conditions: C57/BL6 mice
# Method: Compound 1 was administered s.c. to C57/BL6 mice and plasma and brain samples were processed and analyzed using standard bioanalytical protocols. Three mice were sacrificed at time points: 15 min, 1 hr and 4 hr. Blood was collected into lithium heparin tubes for plasma collection. Brain samples were homogenized prior to extraction using a FastPrep-24 tissue homogenizer. Plasma and brain homogenates were extracted by protein precipitation with acetonitrile containing verapamil as internal standard (IS). After vortexing for 10 min, samples were transferred to a 96 well filter plate and filtered using a centrifuge. Filtrates were analyzed by LC/MS/MS. The compounds were quantified with software using calibration curves. Compound 1 plasma (▪) and brain (•) concentrations are presented.
# [2] = tested on: experimental autoimmune encephalomyelitis; assay: in vivo; type: in vivo, C57/Bl6 mice
# in vivo = type: in vivo, C57/Bl6 mice; conditions: C57/Bl6, mouse, in vivo, ip, 5 mg/kg
# [3] = target: T1, recombinant human Orai1 and recombinant human STIM1 (Homo sapiens, UniProt Q96D31); assay: Ca^2+ signaling assay in HEK293 cells transfected with Orai1 and STIM1 (Fura-2); type: cell-based; conditions: HEK293 transfected with Orai1/STIM1, 10 μM Compound 1, single cell Fura-2 fluorescence
# T1 construct: expressed in transfected cells; host or cells: human embryonic kidney 293 cells
# Method: FIG. 8 depicts Compound 1 as a modulator of store-operated Ca^2+ (SOC) channels. The white rectangle represents a 2 mM external Ca^2+ concentration solution, the hashed rectangle represents a 0 mM external Ca2+ concentration solution, the slashed rectangle represents a 0 mM external Ca^2+ concentration solution with 2 μM thapsigargin, the grey rectangle represents 10 μM Compound 1 in a 2 mM external Ca^2+ concentration solution, and the black rectangle represents […] 2-aminoethoxydiphenyl borate in a 2 mM external Ca^2+ concentration solution. Cell #1 and Cell #2 represent two separate human embryonic kidney 293 cells successfully transfected with recombinant human Orai1 and recombinant human STIM1.
# Compound 1 was screened for inhibition of Ca^2+ signaling by examining the intracellular Ca^2+ response in the presence of Compound 1 (FIG. 8). First, human embryonic kidney 293 cells were transfected by lipofectamine with recombinant human Orai1 and recombinant human STIM1. Recombinant human Orai1 was genetically tagged with enhanced green fluorescent protein to label successfully transfected cells. Cells were plated on coverslips and loaded with 2 μM of the Ca^2+ indicator dye, Fura-2, to allow for detection of intracellular Ca^2+ concentration. Cellular fluorescence was determined by alternating fluorescent excitation at 340 and 380 nanometers.
# [4] = In vivo pharmacokinetics in rat; design: species or system Sprague Dawley rat
# Method: Compound 1 was administered p.o. (▪) or i.v. (•) to a nine week old male Sprague Dawley rat (FIG. 6). For survival blood collection, 250-350 μL blood samples were collected via jugular vein (JUGVEIN) cannula at proposed time points per study protocol and recorded. Blood was collected pre-dose and at 15 & 30 min, 1, 2, 4, 12, 24 & 48 hr after Compound 1 administration. Blood was collected into lithium heparin tubes for plasma collection. Calibration standards and study samples were processed for LC/MS/MS analysis by precipitating 40 μL of each sample with two volumes of ice cold Internal Standard Solution (acetonitrile containing 50 ng/mL of dextromethorphan, 5 ng/mL diphenhydramine and 125 ng/mL diclofenac). The precipitated samples were centrifuged at 6100 g for 30 minutes. Following centrifugation, an aliquot of each supernatant was transferred to an autosampler plate and diluted with an equal volume of 0.2% formic acid in water. Processed study samples were analyzed using LC/MS/MS.
# MDR1 = assay: MDCK-MDR1 permeability assay; type: in vitro ADME, canine; conditions: dog
# Method: Compound 1 was evaluated for permeability across polarized Madin-Darby canine kidney-multidrug resistance protein 1 (MDCK-MDR1) epithelial monolayers. MDCK-MDR1 cells grown in tissue culture flasks were trypsinized, suspended in medium, and the suspensions were applied to wells of a Millipore 96 well Caco-2 plate (FIG. 7). The cells were allowed to grow and differentiate for five days and confluence was confirmed. For Apical to Basolateral (A→B) permeability, Compound 1 was added to the apical (A) side and amount of permeation is determined on the basolateral (B) side; for Basolateral to Apical (B→A) permeability, the Compound 1 was added to the B side and the amount of permeation was determined on the A side and analyzed by LC/MS/MS.
# Ramos B cells = assay: Cancer cell viability assay, Ramos; type: cell-based, human; conditions: 120 hours, flow cytometric light scatter
# Method: (§1) Compound 2 was screened for inhibition of cancer cell survival by quantifying cellular death in the presence of Compound 2 (FIG. 4). Human Jurkat T cells (▪), an immortalized line of human acute T cell lymphoblastic leukemia; Ramos B cells (•), an immortalized line of human Burkitt's lymphoma; and primary human T cells (▴) isolated from the peripheral blood of a healthy, consenting donor were cultured in the presence Compound 2 to test for cellular viability and cell death. Cells were cultured in standard culture conditions, and primary human T cells were also activated with 4 μg/mL immobilized anti-CD3 (clone: OKT3) and 1 μg/mL soluble anti-CD28 (clone: CD28.2) antibodies and 0.2 ng/mL recombinant human IL-2. Cell viability was assayed through flow cytometric analysis of cellular light scatter following 72 hours for primary human or 120 hours for Jurkat and Ramos in standard culture conditions. Viable cell percentage was analyzed as the percent decrease of viable cells compared to a control well with no Compound 2 using a standard flow cytometry lymphocyte analysis gate of forward and side scatter.
# primary human T cells [5] = assay: Primary human T cell proliferation assay (CFSE dilution); type: cell-based; conditions: 72 hours
# Method: Compound 2 was screened for inhibition of primary human T cell proliferation by quantifying cellular divisions in the presence of Compound 2 (FIG. 3). First, a 96-well plate was coated with 4 μg/mL anti-CD3 antibody (clone: OKT3) in phosphate buffered saline overnight at 4 degrees Celsius. Primary human T cells were then isolated from the peripheral blood of a healthy, consenting donor using an antibody-based human T cell enrichment protocol. Human T cells were then stained with 1.75 μM of carboxyfluorescein succinimidyl ester, to allow for detection of cellular proliferation. Human T cells were then cultured with Compound 2 and activated with immobilized anti-CD3 and 1 μg/mL soluble anti-CD28 (clone: CD28.2) antibodies and 0.2 ng/mL recombinant human IL-2 to induce cellular proliferation through the NFAT and NF-κB transcription factor pathways. Proliferation was assayed through flow cytometric analysis of carboxyfluorescein succinimidyl ester dilution after 72 hours in standard culture conditions. Maximal proliferation occurred with a 3.9 fold increase in activation index compared to an unstimulated control.
# primary human T cells [6] = assay: Cell viability assay, primary human T cells; type: cell-based; conditions: primary human T cells from a healthy donor, activated, 72 hours
# Method: as §1
# [7] = tested on: Ca^2+ influx in human Jurkat T cells; assay: Ca^2+ signaling assay in Jurkat T cells activated with PHA-P (Fluo-4, flow cytometer); type: cell-based
# Method: (§2) Compound 2 was screened for inhibition of Ca^2+ signaling by examining the intracellular Ca^2+ response in the presence of Compound 2 (FIG. 2). First, the human Jurkat T cells, an immortalized line of human acute T cell lymphoblastic leukemia, were loaded with the 2 μM of the Ca^2+ indicator dye, Fluo-4, to allow for detection of Ca^2+ influx. Jurkat cells were then cultured with Compound 2 and activated with Phytohemagglutinin PHA-P to induce Ca^2+ influx. Immediately after activation, Ca^2+ influx was determined by measuring Jurkat fluorescence using a flow cytometer. Maximal Ca^2+ influx occurred with a 2.9 fold increase in mean Fluo-4 fluorescence intensity compared to an unstimulated control.
# Human Jurkat T cells = assay: Cancer cell viability assay, Jurkat; type: cell-based; conditions: 120 hours, flow cytometric light scatter
# Method: as §1
# [8] = tested on: Ca^2+ influx in murine cerebellum CRL-2540 cells (mouse microglia); assay: Ca^2+ signaling assay in microglia activated with thapsigargin (Fluo-4); type: cell-based
# Method: as §2, with “5).” for “2).”, “murine cerebellum CRL-2540” for “human Jurkat T”, “mouse microglia,” for “human acute T cell lymphoblastic leukemia,”, “CRL-2540” for “Jurkat”, “2 μM thapsigargin” for “Phytohemagglutinin PHA-P”, “0.52” for “2.9”
# [9] = male, Sprague Dawley, plasma, iv, 10000 ug/kg
# [10] = male, Sprague Dawley, plasma, po, 10000 ug/kg
# T1 sequence (Q96D31 whole entry): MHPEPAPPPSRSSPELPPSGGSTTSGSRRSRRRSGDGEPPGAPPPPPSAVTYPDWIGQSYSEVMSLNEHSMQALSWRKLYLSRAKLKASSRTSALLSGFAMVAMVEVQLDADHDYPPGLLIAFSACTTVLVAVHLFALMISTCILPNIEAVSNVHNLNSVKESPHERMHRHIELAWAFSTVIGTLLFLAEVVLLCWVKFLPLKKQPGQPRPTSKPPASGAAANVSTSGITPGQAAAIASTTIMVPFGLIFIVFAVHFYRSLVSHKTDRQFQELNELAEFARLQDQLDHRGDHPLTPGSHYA
compound,measurement,setting,value
"CC(C)(C)c1cc(CCC(=O)c2ccc[nH]2)cc(C(C)(C)C)c1O [Compound 1, 3-(3,5-di-tert-butyl-4-hydroxyphenyl)-1-(1H-pyrrol-2-yl)propan-1-one]",Animal body weight and clinical observations,[1],appeared normal
same,Recovery of animals in the EAE model,[2]; 5 mg/kg i.p. daily starting on day −1,enhanced recovery
same,Neuroprotection (clinical score) compared to vehicle-treated mice,"[2]; 5 mg/kg i.p. daily, p<0.05",significant neuroprotection
same,concentration at 1 h,in vivo; Compound level in the brain,38 ± 4 nM
same,concentration at 1 h,in vivo; Compound level in the plasma,23.3 ± 3.1 nM
same,Modulation of store-operated Ca^2+ (SOC) channels,[3],modulates store-operated Ca^2+ (SOC) channels
same,AUC(0-inf),[4]; [9],706 ng·h/mL
same,AUC(0-t),[4]; [9],694 ng·h/mL
same,Cmax,[4]; [9],837 ng/mL
same,MRT inf,[4]; [9],1.9 h
same,Tmax,[4]; [9],0.25 h
same,clearance,[4]; [9],236 mL/min/kg
same,half-life,"[4]; male, Sprague Dawley, plasma, iv, 10000 ug/kg, i.v., 10000 μg/kg, read-out: Terminal t½ (converted)",2.64 h
same,Vd,"[4]; male, Sprague Dawley, plasma, iv, 10000 ug/kg, i.v., 10000 μg/kg, read-out: VSS",26.9 L/kg
same,AUC(0-inf),[4]; [10],747 ng·h/mL
same,AUC(0-t),[4]; [10],679 ng·h/mL
same,Cmax,[4]; [10],126 ng/mL
same,Tmax,[4]; [10],2 h
same,bioavailability,[4]; [10],106%
same,half-life,"[4]; male, Sprague Dawley, plasma, po, 10000 ug/kg, p.o., 10000 μg/kg, read-out: T½ (converted)",3.27 h
same,Animal body weight and clinical observations,"[4]; p.o. or i.v., 10000 μg/kg",appeared normal
same,efflux ratio,MDR1,1.6
same,Papp A→B,MDR1; Apical to Basolateral,1 ×10⁻⁶ cm/s
same,Papp B→A,MDR1; Basolateral to Apical,1.6 ×10⁻⁶ cm/s
"CC(C)(C)c1cc(CCC(=O)c2[nH]c(Cl)c(Cl)c2Cl)cc(C(C)(C)C)c1O [Compound 2, 3-(3,5-di-tert-butyl-4-hydroxyphenyl)-1-(3,4,5-trichloro-1H-pyrrol-2-yl)propan-1-one]",Cell viability in the presence of compound,Ramos B cells,decreased
same,"Maximal inhibition of proliferation, fold increase in activation index compared to an unstimulated control",primary human T cells [5]; maximal proliferation 3.9 fold,0.91 fold
same,IC50,"primary human T cells [5]; Homo sapiens, T-cell, anti-CD3/anti-CD28/IL-2 activation, read-out: IC50 of inhibition of primary human T cell proliferation",0.671 µM
same,Cell viability in the presence of compound,primary human T cells [6],did not decrease
same,IC50,"[7]; Homo sapiens, PHA-P activation, Fluo-4 fluorescence, read-out: IC50 of inhibition of Ca^2+ influx",3.78 µM
same,"Maximal inhibition of Ca^2+ influx, fold increase compared to an unstimulated control","[7]; PHA-P, maximal influx 2.9 fold",0.35 fold
same,Cell viability in the presence of compound,Human Jurkat T cells,decreased
same,"Maximal inhibition of Ca^2+ influx, fold increase compared to an unstimulated control","[8]; CRL-2540, thapsigargin, maximal influx 0.52 fold",0.19 fold
same,IC50,"[8]; Mus musculus, CRL-2540 microglia, 2 μM thapsigargin, Fluo-4, read-out: IC50 of inhibition of Ca^2+ influx",10.9 µM
